Experimental data from US5874528A, “Binding peptides which interact with ligand growth factors of the epidermal growth factor receptor and erbB-2 receptor” (Georgetown University, priority 1994, dated 1999).
Ends that are not written are not given here.

Key:
MDA-MB-468 cells = test: soft agar colony formation (anchorage-independent growth) of MDA-MB-468 cells; assay type: cell-based, human; conditions: 10 nM, positive control
p185^erbB-2 [1] = test: p185^erbB-2 binding competition assay with iodinated 4D5 on SK-Br-3 cells; parameters: species or system human; conditions: 1 nM iodinated 4D5, 3 hours at 4° C., read-out: B/T 50, displacement of the binding of iodinated 4D5 to SK-Br-3
Procedure: SK-Br-3 cells were placed in 48-well plates (Costar) in 5% fetal calf serum (FCS), IMEM (Biofluids).Cells were washed and incubated for 30 minutes at 37° C. with binding buffer [1 mg/ml BSA, 10 mM Hepes, 20 mM glutamine, DMEM-F12 pH 7.4]. Binding studies were performed for 3 hours at 4° C. On SK-Br-3 cells, 1 nM iodinated 4D5 was incubated with various concentrations of P1 (.largecircle.), P2 (.circle-solid.), P3 (Δ), P4 (.tangle-solidup.), RL1 (.quadrature.), and RL2 (.box-solid.) unlabeled peptides (A), or with unlabeled 4D5 (B). After incubation, cells were washed three times with binding buffer, and solubilized with 1% SDS. Unspecific binding of iodinated 4D5 was determined with an excess (100 nM) of unlabeled 4D5. Each group was assayed in triplicate. Experiments were performed three times with similar results.
To explore whether the RL2 peptide could specifically represent either a p185^erbB-2 or EGFR-extracellular binding site, we tested the aforementioned peptides in p185^erbB-2 or EGFR binding competition assays. Since iodinated gp30 was not available, p185^erbB-2 and EGFR competition assays were performed using iodinated monoclonal antibody 4D5 and iodinated EGF respectively. p185^erbB-2 monoclonal antibodies 4D5 and 7C2 were provided by Genentech, Inc., South San Francisco, Calif. […]

EGFR [2] = test: EGFR binding competition assay with iodinated EGF in MDA-MB-468 cells; parameters: species or system human; conditions: 1 nM iodinated EGF, peptide 0.6, 6, 60 μM
Procedure: FIG. 6A: EGFR binding competition assays were performed in MDA-MB-468 cells. In brief, 150,000 cells/well were plated in 24 well plate. The binding assays were performed as described by Lonardo, et al., Mol. Cell. Biol, 2:992 (1990). In brief, 1 nM iodinated EGF (Amersham) was incubated with increasing concentrations of RL2 or RL2-K (0.6, 6, 60 μM, respectively). Increasing concentrations of unlabelled EGF were used as control, as shown in the insert. Each group was assayed in triplicate. Values are from three experiments and expressed as the mean percent of control cases.
To explore whether the RL2 peptide could specifically represent either a p185^erbB-2 or EGFR-extracellular binding site, we tested the aforementioned peptides in p185^erbB-2 or EGFR binding competition assays. Since iodinated gp30 was not available, p185^erbB-2 and EGFR competition assays were performed using iodinated monoclonal antibody 4D5 and iodinated EGF respectively. p185^erbB-2 monoclonal antibodies 4D5 and 7C2 were provided by Genentech, Inc., South San Francisco, Calif.
Among the peptides tested, only RL2 displaced in a dose-dependent manner (B/T 50: 8 μM) the binding of iodinated 4D5 to SK-Br-3 (FIG. 2).

monoclonal antibody 4D5 = test: binding of iodinated RL2 to a 4D5 affinity column
Procedure: First, RL2 peptide was iodinated using Iodogen, and purified with high-pressure liquid chromatography (HPLC); the specific activity was 26,000 cpm/μg peptide. […] 3×10^6 cpm of iodinated RL2 were loaded onto a protein A-sepharose column coupled with 4D5 (coupling percentage: 98.5%). Elutions were performed with increasing concentrations of MgCl2 from 1 to 5M (see Table 1). The specific elution marked as * on Table I was obtained at 2M MgCl2. The flow-through contained only background levels of radioactivity.

p185^erbB-2 [3] = test: in vitro tyrosine phosphorylation assay in MDA-MB-453 cells; assay type: cell-based, human; conditions: 0.06 to 60 μM, gp30 50 pM
Procedure: Cells were grown in 24-well plates (Costar) to 70% confluence in 5% FCS IMEM and serum-starved 24 hours prior to assays. Cells were then treated for 20 minutes at 37° C. with RL1 or RL2 with and without gp30 (at concentrations given below), as indicated on Figure panels, washed once with serum-free IMEM, and lysed at 4° C. for 10 minutes with a lysis buffer containing SDS (Emprotech). Total cellular proteins were subjected to 4-20% SDS-PAGE, and blotted onto Hybond-ECL membranes (Amersham). Membranes were blocked with tris-buffered saline [5% BSA, 0.5% Tween 20] and probed with 1 μg/ml phosphotyrosine monoclonal antibody (UBI) in tris-buffered saline [0.5% BSA, 0.5% Tween 20]. Immune complexes were detected using the ECL-western blotting kit (Amersham) as indicated by the manufacturer. […] The values obtained were corrected for background and expressed as control percentages. […]
(§1) To further characterize RL2 blocking effects, we analyzed the homologous peptides for their ability to prevent the tyrosine phosphorylation induced by gp30 either in p185^erbB-2 or EGFR, or both of them. […] (Densitometric analyses of autoradiograms were performed using a SAMBA 4000 system (Dynatech Laboratories). The values obtained were corrected for background and expressed as control percentages. Differences were considered significant when effects more than 10% versus controls occurred.)

EGFR [4] = test: in vitro tyrosine phosphorylation assay in MDA-MB-468 cells; assay type: cell-based, human
Procedure: Cells were grown in 24-well plates (Costar) to 70% confluence in 5% FCS IMEM and serum-starved 24 hours prior to assays. Cells were then treated for 20 minutes at 37° C. with RL1 or RL2 with and without gp30 (at concentrations given below), as indicated on Figure panels, washed once with serum-free IMEM, and lysed at 4° C. for 10 minutes with a lysis buffer containing SDS (Emprotech). Total cellular proteins were subjected to 4-20% SDS-PAGE, and blotted onto Hybond-ECL membranes (Amersham). Membranes were blocked with tris-buffered saline [5% BSA, 0.5% Tween 20] and probed with 1 μg/ml phosphotyrosine monoclonal antibody (UBI) in tris-buffered saline [0.5% BSA, 0.5% Tween 20]. Immune complexes were detected using the ECL-western blotting kit (Amersham) as indicated by the manufacturer. Densitometric analyses were performed using a SAMBA 4000 system (Dynatech Laboratories). The values obtained were corrected for background and expressed as control percentages. Differences were considered significant when effects more than 10% versus controls occurred.
Upper panels correspond to MDA-MB-453 cells. […] Lower panels correspond to MDA-MB-468 cells. […] Lanes 1 to 4 correspond to increasing concentrations of RL2 (left panels), or RL1 (right panels) peptides. 1: 0.06 μM; 2: 0.6 μM; 3: 6 μM; 4: 60 μM. Experiments were repeated four times with similar results.
FIG. 6B: EGFR Tyrosine Phosphorylation assays were performed using MDA-MB-468 cells, as described for FIG. 3. […]
as §1

p185^erbB-2 [5] = test: in vivo phosphorylation assay and phosphoaminoacid analysis in MDA-MB-453 cells; assay type: cell-based, human
Procedure: MDA-MB-453 cells were grown in 35 mm dishes (Costar) to 70% confluence in 5% FCS IMEM. Cells were washed twice with PO4 free DMEM (Gibco), and then incubated for 3 hours at 37° C. with [^32 P]-orthophosphate (Amersham; 1.0 mCi/ml in each dish). Cells were then treated for 10 minutes at 37° C. with samples: control, 60 μM RL2, 50×10^-12 M gp30, or 50×10^-12 M gp30 plus 60 μM RL2. All samples were preincubated 30 minutes at 37° C. Cells were washed twice with PBS, and lysed at 4° C. for 10 minutes with a lysis buffer containing 1% Triton X-100, and kinase, protease and phosphatase inhibitors as described (Frackelton, et al., J. Biol. Chem., 259:7909 (1984)). After centrifugation at 10,000× g for 15 minutes at 4° C., tyrosinephosphorylated proteins were isolated from supernatants by microbath affinity chromatography on the phosphotyrosine monoclonal antibody 1G2 (provided by Dr. A. R. Frakelton) as previously described (Frackelton, et al., J. Biol Chem., 259:7909 (1984); and Beitz, et al., Proc. Natl. Acad. Sci. USA, 88:2021 (1991)), eluted with 1 mM phenylphosphate in PBS pH 7.4, and purified further by immunoprecipitation with p185^erbB-2 monoclonal antibody Ab-3 (Oncogene Science) adsorbed on protein A-Sepharose. […]

MDA-MB-453 cells = test: soft agar colony formation (anchorage-independent growth) of MDA-MB-453 cells; assay type: cell-based, human; conditions: for Number of Colonies (± SD): MDA-MB 453 cells, untreated 942 ± 120
Procedure: (§2) MDA-MB-453 (A), or SK-Br-3 cells (B) were plated in 35 mm tissue culture dishes (Costar). A bottom layer of 1 ml IMEM containing 0.6% Bacto-agar (Difco), 2 mM glutamine, and 10% FCS was prepared. Top layers contained 2×10^4 cells and samples in 0.4% Bacto-agar, 10% FCS IMEM. Samples were sterilized prior to plating by filtration using 0.22 μM Millex CU millipore filter. The legend of peptide symbols in A is identical to the one in FIG. 2. The following concentrations were used in B: 5×10^-12 M gp30, 2×10^-12 M p75, 60 μM RL2, and 127 nM p185^erbB-2 extracellular domain (ECD) as positive control. Experiments were carried out in FCS that had been tested for optimal cloning efficiency. Cells were incubated 7-9 days in humidified 5% CO2 atmosphere at 37° C. Colonies larger than 60-μm were counted using a Baush and Lomb Stem Cell Colony Counter (Artex Systems Corp.). Each group was assayed in triplicate. Experiments were performed three times.
*Cells were treated as indicated. The monoclonal antibody 4D5 (kindly
provided by Genentech, CA) and the RL2 peptide were used as positive
controls. Soft agar cloning assays were carried out as previously
described (Lupu, et al., Proc. Natl. Acad. Sci. USA, 87:2287-91, 1992).
Colonies larger than 69 μM were counted using a Baush & Lomb Stem Cell
Colony Counter (Artex Systems Corp.). Each group was assayed in
triplicate. Experiments were performed three times with similar results.

SK-Br-3 cells = test: soft agar colony formation of SK-Br-3 cells with gp30 or p75; assay type: cell-based, human; conditions: 5×10^-12 M gp30 or 2×10^-12 M p75; 60 μM RL2, 127 nM ECD
Procedure: as §2
To illustrate RL2 antiproliferative effects as a blocking action on the p185^erbB-2 ligand-mediated effects, we tested this peptide and the ECD of p185^erbB-2 on the anchorage-independent growth of SK-Br-3 cells in the presence of stimulating concentrations of either gp30 or p75 proteins, the latter known to interact exclusively with p185^erbB-2 (Lupu, et al., Proc. Natl. Acad. Sci. USA, 89:2287-91 (1992)). […]

| Substance | response of MDA-MB-468 cell anchorage-independent growth (MDA-MB-468 cells) | IC50 (p185^erbB-2 [1]) | effect on binding of iodinated EGF to the EGFR (EGFR [2]) | radioactivity, flow through (monoclonal antibody 4D5; input 3 × 10^6 cpm iodinated RL2, flow through) | radioactivity, wash (monoclonal antibody 4D5; input 3 × 10^6 cpm iodinated RL2, wash) | binding of iodinated peptide to 4D5-affinity column (monoclonal antibody 4D5; protein A-sepharose column coupled with 4D5) | inhibition of gp30-stimulated level of p185^erbB-2 tyrosine phosphorylation (p185^erbB-2 [3]) | inhibition of gp30-stimulated level of EGFR tyrosine phosphorylation (EGFR [4]; 60 μM, gp30 50 pM) | inhibition of baseline level of EGFR tyrosine phosphorylation (EGFR [4]; 60 μM, no gp30) | effect on EGF-induced tyrosine phosphorylation of EGFR (EGFR [4]; EGF 1.68 nM, peptide 0.6, 6 and 60 μM) | decrease of p185^erbB-2 tyrosine level of phosphorylation, presence of gp30-stimulation (p185^erbB-2 [5]; 60 μM RL2, 50×10^-12 M gp30) | decrease of p185^erbB-2 tyrosine level of phosphorylation, absence of gp30-stimulation (p185^erbB-2 [5]; 60 μM RL2, [32P]-orthophosphate labelling) | inhibition of MDA-MB-453 cell anchorage-independent growth (MDA-MB-453 cells; 6-60 μM) | Number of Colonies (± SD) (MDA-MB-453 cells; 6 μM) | Number of Colonies (± SD) (MDA-MB-453 cells; 60 μM) | inhibiting effects on anchorage-independent growth of SK-Br-3 cells in presence of gp30 or p75 (SK-Br-3 cells) |
| --- | --- | --- | --- | --- | --- | --- | --- | --- | --- | --- | --- | --- | --- | --- | --- | --- |
| EGF: epidermal growth factor, positive control | did respond | – | – | – | – | – | – | – | – | – | – | – | – | – | – | – |
| LGLRSLRE [RL2] | – | 8 µM | absence of an effect | 2.6 × 10^5 cpm | 2.54 × 10^5 cpm | specifically bind to a 4D5-affinity column | 80% | not the gp30-stimulated level | 71% | no effect | 26% | 50% | 72% | 245 ± 46 | 123 ± 21 | fully reversed |
| p185^erbB-2 ECD: p185^erbB-2 extracellular domain (ECD), positive control | – | – | – | – | – | – | – | – | – | – | – | – | – | – | – | fully reversed |
